Data as given in patent US20070043112A1, “Use of non-opiates for the potentation of opiates” (priority 2003, published 2007).

Test: rat tail flick assay (nociceptive reaction latency)
Assay type: in vivo
Conditions: ifenprodil IN 1 mg/rat + morphine IP 6 mg/kg, given 30 min before the test, Student's t test P<0.05 vs morphine group
Method: In FIG. 1, results are expressed as mean±sem for 6 experiments, which are (from left to right): vehicle, morphine (6 mg/kg), vehicle, ifenprodil (1 mg/rat), vehicle IN+vehicle IP, and ifenprodil IN (1 mg/rat)+morphine IP (6 mg/kg). • vehicle: 90% saline 10% propylene glycol • vehicle and morphine were given intraperitoneally 30 min. before the test • vehicle and ifenprodil were given intranasally 30 min. before the test • n=10 rats per group • student's T test: * indicates a significant difference in comparison to the vehicle group for P<0.05 • student's T test: † indicates a significant difference in comparison to the morphine group for P<0.05

CC(C(O)c1ccc(O)cc1)N1CCC(Cc2ccccc2)CC1 (stereo not shown) [ifenprodil]
potentiation of morphine analgesia (nociceptive reaction latency): potentiates morphine when administered intranasally
